16 compounds from US10131669B2, “Pyrazolopyrimidine compounds” (Pfizer Inc., priority 2014, dated 2018) can be followed below.

Where a name gives a salt, the structure may show the parent alone.

Common to all, as to assay type: biochemical
Experiment [1] addresses T1, Human PDE4C1 (Homo sapiens, UniProt Q08493).
T1 construct: His6 (N); FLAG (C); made in house; host or cells: insect cells (baculovirus, pFastBac)
The experiment in a line: PDE4C1 Scintillation Proximity Assay (SPA), inhibition of enzyme activity. The conditions noted are these: geometric mean of 2-7 determinations unless otherwise indicated (b: ≥8 determinations; c: single determination), 1 μM cAMP, 30 min at 25° C., read-out: Human PDE4C FL. The procedure:
(§1) The recombinant Bacmid was isolated and used to transfect insect cells to generate a viral stock. To generate cell paste for purification, insect cells were infected with the virus stock and cells were harvested 72 hours after infection. Insect cell paste was lysed and after centrifugation, the supernatant was batch bound to Ni-NTA agarose (GE Healthcare) and eluted with 250 mM imidazole. This eluate was diluted with FLAG buffer (50 mM Tris HCL pH 7.5, 100 mM NaCl, 5% Glycerol, 1 mM TCEP with protease inhibitors) and batch bound to ant-FLAG M2 agarose (Sigma) overnight at 4° C. The agarose was packed into a column, washed with buffer and eluted with buffer containing elute using 250 ug/ml Flag-peptide. Fractions were analyzed using SDS-PAGE Coomassie blue staining and pooled based on purity. Pooled fractions were chromatographed on a S200 120 ml column (GE Healthcare) in 50 mM Tris HCL pH 7.5, 150 mM NaCl, 10% Glycerol, 2 mM TCEP with protease inhibitors. PDE4C1 fractions were analyzed by SDS-PAGE Coomassie blue staining, pooled based on purity, dialyzed against 50 mM Tris HCL pH 7.5, 100 mM NaCl, 20% Glycerol, 2 mM TCEP, frozen and stored at −80° C.
(§2) The PDE4A3, PDE4B1, PDE4C1 and PDE4D3 assays use the Scintillation Proximity Assay (SPA) technology to measure the inhibition of human recombinant […], PDE4C1, and PDE4D3 enzyme activity by compounds in vitro. The PDE4A1, PDE4B3, PDE4C1, and PDE4D3 assays are run in parallel using identical parameters, except for the concentration of enzyme (80 pM PDE4A3, 40 pM PDE4B3, 40 pM PDE4C1 and 10 pM PDE4D). The assays are performed in a 384-well format with 50 uL assay buffer (50 mM TRIS pH7.5; 1.3 mM MgCl2; 0.01% Brij) containing enough PDE4A3, PDE4B1, PDE4C1, and PDE4D to convert ˜20% of substrate (1 μM cAMP consisting of 20 nM 3H-cAMP+[…] cold cAMP) and a range of inhibitors. Reactions are incubated for 30 min at 25° C. The addition of 20 uL of 8 mg/ml yitrium silicate SPA beads (Perkin Elmer) stops the reaction. The plates are sealed (TopSeal, Perkin Elmer) and the beads are allowed to settle for 8 hrs, after which they are read on the Trilux Microbeta overnight.
On the technique in general: Scintillation proximity formats need no separation of bound from free tracer.

Experiment [2] concerns the target T2, Human PDE4B1 (Homo sapiens, UniProt Q07343, S133E/S654A/S659A/S661A).
T2 construct: His6 (N); thrombin cleavage site (N); made in house; host or cells: insect cells (baculovirus, pFastBac)
The experiment in a line: PDE4B1 Scintillation Proximity Assay (SPA), inhibition of enzyme activity. The following applies: geometric mean of 2-7 determinations unless otherwise indicated (b: ≥8 determinations; c: single determination); 1 μM cAMP, 30 min at 25° C.; read-out: Human PDE4B FL; IC50. As for the experimental part: The recombinant Bacmid was isolated and used to transfect insect cells to generate a viral stock. To generate cell paste for purification, insect cells were infected with the virus stock and cells were harvested 72 hours after infection as described in Seeger, T. F. et al., Brain Research 985 (2003) 113-126. Insect cell paste was lysed and after centrifugation, the supernatant was chromatographed on Ni-NTA agarose (Qiagen) as described in Seeger, T. F. et al., Brain Research 985 (2003) 113-126. Ni-NTA agarose eluting fractions containing PDE4 were pooled, diluted with Q buffer A (20 mM Tris HCl pH 8, 5% glycerol, 1 mM TCEP) to reduce NaCl to ˜100 mM and loaded on a Source 15Q (GE Healthcare) column. After washing with Q buffer A/10% buffer B to baseline, PDE4D was eluted with a gradient from 10% to 60% of Buffer B (20 mM Tris HCl pH 8, 1 M NaCl, 5% glycerol, 1 mM TCEP). PDE4D fractions were analyzed by SDS-PAGE Coomassie blue staining, pooled based on purity, frozen and stored at −80° C.
as §2

Experiment [3] concerns the target T3, human PDE4D3 (Homo sapiens, UniProt Q08499).
T3 construct: His6 (C); made in house; host or cells: insect cells (baculovirus, pFastBac)
The experiment in a line: PDE4D3 Scintillation Proximity Assay (SPA), inhibition of enzyme activity. The conditions noted are these: geometric mean of 2-7 determinations unless otherwise indicated (b: ≥8 determinations; c: single determination); 1 μM cAMP, 30 min at 25° C.; read-out: Human PDE4D FL; IC50. As for the experimental part:
The recombinant Bacmid was isolated and used to transfect insect cells to generate a viral stock. To generate cell paste for purification, insect cells were infected and cells were harvested 72 hours after infection. Insect cell paste was lysed and after centrifugation, the supernatant was chromatographed on Ni-NTA agarose (Qiagen) as described in Seeger, T. F. et al., Brain Research 985 (2003) 113-126. Ni-NTA agarose eluting fractions containing PDE4 were pooled, diluted with Q Buffer A (50 mM Tris HCl pH 8, 4% glycerol, 100 mM NaCl, 1 mM TCEP, Protease inhibitors EDTA-free (Roche)) to reduce NaCl to ˜200 mM, and loaded on a Q Sepharose (GE Healthcare) column. After washing with Q buffer A to baseline, PDE4D was eluted with a gradient from 10% to 60% of Buffer B (50 mM Tris HCl pH 8, 1 M NaCl, 4% glycerol, 1 mM TCEP). PDE4D fractions were analyzed by SDS-PAGE Coomassie blue staining, pooled based on purity, frozen and stored at −80° C.
as §2

For experiment [4], the target named is T4, Human PDE4A3 (Homo sapiens, UniProt P27815).
T4 construct: His6 (N); FLAG (C); made in house; host or cells: insect cells (baculovirus, pFastBac)
The experiment in a line: PDE4A3 Scintillation Proximity Assay (SPA), inhibition of enzyme activity. The conditions noted are these: geometric mean of 2-7 determinations unless otherwise indicated (b: ≥8 determinations; c: single determination), 1 μM cAMP, 30 min at 25° C., read-out: Human PDE4A FL.
Source text: as §1, with “Human PDE4A3 coding sequence (amino acids 2 to 825 from the sequence with accession number NP_001104779) was cloned into the baculovirus expression vector pFastBac (Invitrogen) engineered to include an N-terminal His6 affinity tag and a c-terminal FLAG affinity tag to aid in purification. The recombinant” for “The recombinant”, “protease inhibitors. PDE4A3 fractions were” for “protease inhibitors. PDE4C1 fractions were”
as §2

T2 sequence (Q07343 122-736 S133E/S654A/S659A/S661A): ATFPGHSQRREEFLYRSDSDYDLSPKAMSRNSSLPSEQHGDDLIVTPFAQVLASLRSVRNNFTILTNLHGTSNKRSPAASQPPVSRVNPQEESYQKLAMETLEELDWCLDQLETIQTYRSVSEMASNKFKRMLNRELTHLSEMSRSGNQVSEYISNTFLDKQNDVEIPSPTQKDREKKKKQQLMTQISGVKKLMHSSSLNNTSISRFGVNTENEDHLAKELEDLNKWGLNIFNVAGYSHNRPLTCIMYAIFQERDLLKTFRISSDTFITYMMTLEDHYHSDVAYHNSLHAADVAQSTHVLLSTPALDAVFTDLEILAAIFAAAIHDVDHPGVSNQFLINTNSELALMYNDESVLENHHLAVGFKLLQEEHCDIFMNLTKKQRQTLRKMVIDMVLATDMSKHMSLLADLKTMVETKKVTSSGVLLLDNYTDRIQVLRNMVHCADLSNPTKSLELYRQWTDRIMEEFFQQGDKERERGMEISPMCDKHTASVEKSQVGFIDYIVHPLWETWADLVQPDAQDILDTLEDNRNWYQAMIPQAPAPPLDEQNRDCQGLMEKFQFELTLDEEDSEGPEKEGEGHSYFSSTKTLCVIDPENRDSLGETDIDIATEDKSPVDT
T3 sequence (Q08499 186-808): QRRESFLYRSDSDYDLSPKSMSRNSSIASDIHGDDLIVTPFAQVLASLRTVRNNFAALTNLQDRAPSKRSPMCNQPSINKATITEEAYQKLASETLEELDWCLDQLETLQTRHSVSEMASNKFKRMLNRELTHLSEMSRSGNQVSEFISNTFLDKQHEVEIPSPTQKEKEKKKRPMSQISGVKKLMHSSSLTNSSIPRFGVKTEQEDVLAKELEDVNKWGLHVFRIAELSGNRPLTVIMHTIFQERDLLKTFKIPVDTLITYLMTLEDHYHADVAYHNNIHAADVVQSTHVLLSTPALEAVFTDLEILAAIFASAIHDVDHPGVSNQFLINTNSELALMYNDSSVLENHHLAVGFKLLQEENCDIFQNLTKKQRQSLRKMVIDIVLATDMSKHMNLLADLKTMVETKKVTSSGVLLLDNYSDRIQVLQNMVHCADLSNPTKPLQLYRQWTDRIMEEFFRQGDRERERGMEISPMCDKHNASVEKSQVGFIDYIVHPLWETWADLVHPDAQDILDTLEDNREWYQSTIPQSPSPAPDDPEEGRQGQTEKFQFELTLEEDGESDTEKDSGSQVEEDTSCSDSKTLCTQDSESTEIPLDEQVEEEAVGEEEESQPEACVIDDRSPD
T1 sequence (Q08493 2-712): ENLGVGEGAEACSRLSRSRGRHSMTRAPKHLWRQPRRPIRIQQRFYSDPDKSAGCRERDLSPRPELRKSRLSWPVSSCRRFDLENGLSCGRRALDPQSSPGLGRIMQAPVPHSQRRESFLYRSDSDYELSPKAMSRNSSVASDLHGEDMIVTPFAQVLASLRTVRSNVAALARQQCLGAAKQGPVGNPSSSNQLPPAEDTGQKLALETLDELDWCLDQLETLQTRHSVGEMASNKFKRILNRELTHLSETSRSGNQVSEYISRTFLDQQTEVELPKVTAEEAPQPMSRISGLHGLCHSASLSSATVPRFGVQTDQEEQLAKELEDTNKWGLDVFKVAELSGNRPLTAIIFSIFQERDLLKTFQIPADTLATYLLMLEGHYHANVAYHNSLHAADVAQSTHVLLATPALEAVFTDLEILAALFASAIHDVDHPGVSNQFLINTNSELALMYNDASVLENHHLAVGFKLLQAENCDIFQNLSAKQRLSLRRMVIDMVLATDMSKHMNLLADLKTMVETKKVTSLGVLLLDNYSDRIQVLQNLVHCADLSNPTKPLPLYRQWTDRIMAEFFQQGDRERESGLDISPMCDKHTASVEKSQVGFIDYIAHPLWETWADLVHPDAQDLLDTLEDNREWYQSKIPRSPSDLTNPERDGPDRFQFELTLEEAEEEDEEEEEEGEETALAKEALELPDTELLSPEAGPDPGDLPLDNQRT
T4 sequence (P27815 2-825 isoform P27815-6): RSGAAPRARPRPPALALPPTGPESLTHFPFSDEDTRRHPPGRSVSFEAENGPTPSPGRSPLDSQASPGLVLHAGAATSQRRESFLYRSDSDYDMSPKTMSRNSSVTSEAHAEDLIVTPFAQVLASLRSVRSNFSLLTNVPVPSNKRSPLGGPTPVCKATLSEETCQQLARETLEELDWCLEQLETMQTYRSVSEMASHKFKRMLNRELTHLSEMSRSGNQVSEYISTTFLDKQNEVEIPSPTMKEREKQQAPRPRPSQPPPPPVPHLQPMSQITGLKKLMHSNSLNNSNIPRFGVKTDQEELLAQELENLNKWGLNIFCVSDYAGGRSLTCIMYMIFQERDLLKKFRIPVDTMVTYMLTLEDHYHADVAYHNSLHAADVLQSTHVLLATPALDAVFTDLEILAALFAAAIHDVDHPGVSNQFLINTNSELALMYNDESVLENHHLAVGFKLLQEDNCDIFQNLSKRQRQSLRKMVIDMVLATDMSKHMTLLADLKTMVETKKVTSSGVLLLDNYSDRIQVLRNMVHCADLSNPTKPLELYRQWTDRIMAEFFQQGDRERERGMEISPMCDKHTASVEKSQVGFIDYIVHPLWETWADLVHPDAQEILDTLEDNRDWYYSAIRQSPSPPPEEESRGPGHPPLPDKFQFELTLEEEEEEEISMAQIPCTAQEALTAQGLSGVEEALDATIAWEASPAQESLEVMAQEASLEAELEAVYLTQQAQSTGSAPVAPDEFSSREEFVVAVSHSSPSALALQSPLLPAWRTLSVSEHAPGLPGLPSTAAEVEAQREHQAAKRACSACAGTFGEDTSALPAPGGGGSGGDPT

For the compound `O=C(c1nn2cccnc2c1-c1ccc(Cl)cc1)N1CCC1` [Example 1, Azetidin-1-yl[3-(4-chlorophenyl)pyrazolo[1,5-a]pyrimidin-2-yl]methanone], the IC50 in experiment [1] was 84.2 nM; in experiment [2], 52.7 nM; in experiment [3], > 9300 nM; in experiment [4], 17.9 nM.
With `CCCNC(=O)c1nn2cccnc2c1-c1ccc(Cl)cc1` [Example 2, 3-(4-Chlorophenyl)-N-propylpyrazolo[1,5-a]pyrimidine-2-carboxamide], the IC50 in experiment [1] turned out to be 60.6 nM; in experiment [2], 34.6 nM; in experiment [3], 4150 nM; in experiment [4] it was 61.4 nM.
Consider `CCCC(=O)Nc1nn2cccnc2c1-c1ccc(Cl)c(F)c1` [Example 4, N-[3-(4-Chloro-3-fluorophenyl)pyrazolo[1,5-a]pyrimidin-2-yl]butanamide], for which the IC50 was 1540 nM in experiment [1], 894 nM in experiment [2], > 30000 nM in experiment [3] and 553 nM in experiment [4].
On to `O=C(NC1CC1)c1nn2cccnc2c1-c1ccc(Cl)c(F)c1` [Example 5, 3-(4-Chloro-3-fluorophenyl)-N-cyclopropylpyrazolo[1,5-a]pyrimidine-2-carboxamide], for which the IC50 in experiment [1] is 18 nM; in experiment [2] it was 5.87 nM; in experiment [3] it was 662 nM; in experiment [4], 3.29 nM.
On to `Cc1cc(Cl)ccc1-c1c(C(=O)NC2CC2)nn2cccnc12` [Example 6, 3-(4-Chloro-2-methylphenyl)-N-cyclopropylpyrazolo[1,5-a]pyrimidine-2-carboxamide], for which the IC50 in experiment [1] was 66 nM; in experiment [2], 55.2 nM; in experiment [3], > 10400 nM; in experiment [4] it was 28.7 nM.
Regarding `O=C(NC1CC1)c1nn2cc(F)cnc2c1-c1ccc(Cl)cc1` [Example 7, 3-(4-Chlorophenyl)-N-cyclopropyl-6-fluoropyrazolo[1,5-a]pyrimidine-2-carboxamide], the IC50 came out at 23.4 nM in experiment [1], 16.1 nM in experiment [2], 1080 nM in experiment [3] and 8.77 nM in experiment [4].
Turning to `O=C(Nc1ncccn1)c1nn2cccnc2c1-c1ccc(Cl)cc1` [Example 8, 3-(4-Chlorophenyl)-N-(pyrimidin-2-yl)pyrazolo[1,5-a]pyrimidine-2-carboxamide], the IC50 in experiment [1] was 965 nM; in experiment [2] it was 1090 nM; in experiment [3] it was > 25200 nM; in experiment [4], 190 nM.
`O=C(NC1CC1)c1nn2cccnc2c1-c1cncc(Cl)c1` [Example 29, 3-(5-chloropyridin-3-yl)-N-cyclopropylpyrazolo[1,5-a]pyrimidine-2-carboxamide]: the IC50 in experiment [2] turned out to be 132 nM; in experiment [3], 3010 nM.
For `O=C(Nc1nn2cccnc2c1-c1ccc(Cl)c(F)c1)c1ccccc1` [Example 30, N-[3-(4-chloro-3-fluorophenyl)pyrazolo[1,5-a]pyrimidin-2-yl]benzamide], the IC50 in experiment [2] worked out at 2180 nM; in experiment [3] it was 27000 nM.
For `O=C(NC1CC1)c1nn2cccnc2c1-c1ccc(Cl)c(Cl)c1` [Example 32, N-cyclopropyl-3-(3,4-dichlorophenyl)pyrazolo[1,5-a]pyrimidine-2-carboxamide, hydrochloride salt], in that order: 9.98 nM and 720 nM.
Take `O=C(c1nn2cccnc2c1-c1ccnc(OC(F)F)c1)N1CCC1` [Example 37, azetidin-1-yl{3-[2-(difluoromethoxy)pyridin-4-yl]pyrazolo[1,5-a]pyrimidin-2-yl}methanone]: the results for the IC50 in experiment [2] and in experiment [3] were 31.5 nM and 691 nM, respectively.
In the same order, the values of `O=C(NC1CC1)c1nn2cccnc2c1-c1ccnc(OC(F)F)c1` [Example 38, N-cyclopropyl-3-[2-(difluoromethoxy)pyridin-4-yl]pyrazolo[1,5-a]pyrimidine-2-carboxamide, formate salt] are 51.1 nM and 706 nM.
For `O=C(NC1CC1(F)F)c1nn2cccnc2c1-c1ccc(Cl)cc1` (stereo not shown) [Example 40, 3-(4-chlorophenyl)-N-(2,2-difluorocyclopropyl)pyrazolo[1,5-a]pyrimidine-2-carboxamide], in that order: 68 nM and 2360 nM.
In the same order, the values of `O=C(c1nn2cccnc2c1-c1cc(F)c(Cl)c(F)c1)N1CCC1` [Example 41, azetidin-1-yl[3-(4-chloro-3,5-difluorophenyl)pyrazolo[1,5-a]pyrimidin-2-yl]methanone] are 5.32 nM and 350 nM.
Consider `O=C(c1nn2cccnc2c1-c1cc(Cl)ccc1F)N1CCC1` [Example 74, azetidin-1-yl[3-(5-chloro-2-fluorophenyl)pyrazolo[1,5-a]pyrimidin-2-yl]methanone], for which the figures for the IC50 in experiment [2] and in experiment [3] were 45.8 nM and 5990 nM, respectively.
For `N#Cc1ccc(-c2c(C(=O)NC3CC3)nn3cccnc23)c(F)c1` [Example 76, 3-(4-cyano-2-fluorophenyl)-N-cyclopropylpyrazolo[1,5-a]pyrimidine-2-carboxamide], in that order: 443 nM and > 30000 nM.
